Results reported in ChEMBL document CHEMBL1154793, “The lecanindoles, nonsteroidal progestins from the terrestrial fungus Verticillium lecanii 6144” (J Nat Prod, 2009).

Legend:
[1] = target: T1, Progesterone receptor (Homo sapiens, UniProt P06401); assay: Activation of progesterone receptor in human T47D cells up to 1000 nM after 20 hrs by PRE-tagged luciferase reporter gene assay; assay type: cell-based
T1 sequence (P06401 whole entry): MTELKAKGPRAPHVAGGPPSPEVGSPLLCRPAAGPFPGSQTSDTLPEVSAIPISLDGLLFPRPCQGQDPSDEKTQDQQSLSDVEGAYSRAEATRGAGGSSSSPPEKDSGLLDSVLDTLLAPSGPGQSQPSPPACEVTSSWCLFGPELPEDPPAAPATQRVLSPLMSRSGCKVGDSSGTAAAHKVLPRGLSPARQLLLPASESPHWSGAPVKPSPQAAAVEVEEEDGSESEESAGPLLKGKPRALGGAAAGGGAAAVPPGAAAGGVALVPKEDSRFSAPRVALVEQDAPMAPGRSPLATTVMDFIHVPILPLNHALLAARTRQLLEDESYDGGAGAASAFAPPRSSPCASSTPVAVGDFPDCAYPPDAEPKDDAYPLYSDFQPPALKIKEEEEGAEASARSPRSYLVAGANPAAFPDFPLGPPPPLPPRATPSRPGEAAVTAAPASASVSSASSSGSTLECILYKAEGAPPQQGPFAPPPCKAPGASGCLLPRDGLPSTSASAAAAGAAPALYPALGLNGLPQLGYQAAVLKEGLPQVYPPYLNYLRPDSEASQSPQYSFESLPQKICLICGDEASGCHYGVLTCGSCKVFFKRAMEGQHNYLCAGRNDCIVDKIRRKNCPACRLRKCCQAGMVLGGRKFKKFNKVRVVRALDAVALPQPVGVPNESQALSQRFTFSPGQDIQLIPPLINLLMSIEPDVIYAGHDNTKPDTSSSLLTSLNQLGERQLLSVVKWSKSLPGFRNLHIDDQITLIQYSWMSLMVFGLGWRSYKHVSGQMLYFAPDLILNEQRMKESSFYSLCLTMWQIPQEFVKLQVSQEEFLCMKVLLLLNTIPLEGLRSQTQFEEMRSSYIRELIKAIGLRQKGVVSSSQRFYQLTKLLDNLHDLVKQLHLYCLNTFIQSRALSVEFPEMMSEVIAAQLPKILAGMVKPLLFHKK

[2] = target: T2, Glucocorticoid receptor (Homo sapiens, UniProt P04150); assay: Antagonist activity at glucocorticoid receptor ligand binding domain expressed in african green monkey COS7 cells co-transfected with Gal4-LBD up to 10 uM by luciferase reporter gene assay; assay type: cell-based; conditions: cos-7
T2 sequence (P04150 whole entry): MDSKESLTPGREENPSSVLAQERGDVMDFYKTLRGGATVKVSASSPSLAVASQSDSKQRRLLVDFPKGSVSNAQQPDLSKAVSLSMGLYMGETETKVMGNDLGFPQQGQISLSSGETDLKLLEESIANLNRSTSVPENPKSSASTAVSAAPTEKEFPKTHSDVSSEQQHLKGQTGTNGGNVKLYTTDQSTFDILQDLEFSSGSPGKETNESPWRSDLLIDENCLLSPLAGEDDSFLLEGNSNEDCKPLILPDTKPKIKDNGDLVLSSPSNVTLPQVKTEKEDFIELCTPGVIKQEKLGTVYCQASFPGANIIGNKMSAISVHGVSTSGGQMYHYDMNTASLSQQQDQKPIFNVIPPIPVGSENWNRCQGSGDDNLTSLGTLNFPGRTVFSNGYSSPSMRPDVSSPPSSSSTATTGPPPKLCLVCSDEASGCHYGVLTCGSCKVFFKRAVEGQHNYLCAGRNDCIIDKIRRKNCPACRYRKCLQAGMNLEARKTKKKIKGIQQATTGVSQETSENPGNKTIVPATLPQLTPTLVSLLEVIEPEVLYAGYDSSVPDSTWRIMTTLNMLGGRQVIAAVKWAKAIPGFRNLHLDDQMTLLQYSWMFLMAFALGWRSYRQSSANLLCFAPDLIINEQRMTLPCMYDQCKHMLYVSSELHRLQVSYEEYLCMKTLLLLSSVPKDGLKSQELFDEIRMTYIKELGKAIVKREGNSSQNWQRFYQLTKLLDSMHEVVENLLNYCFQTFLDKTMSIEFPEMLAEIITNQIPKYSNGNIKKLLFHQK

[3] = target: T3, Estrogen receptor (Homo sapiens, UniProt P03372); assay: Antagonist activity at estrogen receptor alpha ligand binding domain expressed in african green monkey COS7 cells co-transfected with Gal4-LBD up to 10 uM by luciferase reporter gene assay; assay type: cell-based; conditions: cos-7
T3 sequence (P03372 whole entry): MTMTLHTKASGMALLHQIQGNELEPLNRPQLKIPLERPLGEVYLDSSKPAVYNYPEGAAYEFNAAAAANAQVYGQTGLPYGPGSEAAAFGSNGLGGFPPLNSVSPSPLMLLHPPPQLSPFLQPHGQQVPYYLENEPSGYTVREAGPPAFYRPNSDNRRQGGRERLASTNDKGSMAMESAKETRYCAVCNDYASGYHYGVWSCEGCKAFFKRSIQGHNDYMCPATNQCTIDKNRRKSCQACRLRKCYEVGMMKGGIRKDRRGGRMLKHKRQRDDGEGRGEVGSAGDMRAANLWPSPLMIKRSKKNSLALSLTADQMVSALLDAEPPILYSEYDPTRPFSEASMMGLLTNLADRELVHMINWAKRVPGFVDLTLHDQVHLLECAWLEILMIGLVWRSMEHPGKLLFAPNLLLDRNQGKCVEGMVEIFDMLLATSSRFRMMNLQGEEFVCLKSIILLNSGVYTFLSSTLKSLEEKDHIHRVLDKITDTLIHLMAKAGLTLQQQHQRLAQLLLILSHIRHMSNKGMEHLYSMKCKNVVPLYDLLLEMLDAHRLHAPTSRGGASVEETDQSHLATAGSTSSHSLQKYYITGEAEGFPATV

[4] = target: T4, Progesterone receptor (Homo sapiens) (UniProt P06401); assay: Ratio of compound IC50 to progesterone IC50 for progesterone receptor in human T47D cells; assay type: cell-based
T4 sequence (whole entry): T1 sequence (P06401 whole entry)

[5] = target: T1, Progesterone receptor; assay: Displacement of [3H]progesterone from progesterone receptor in human T47D cells after 3 hrs by scintillation counting; assay type: cell-based
[6] = target: T3, Estrogen receptor
Description: Antagonist activity at estrogen receptor alpha ligand binding domain expressed in african green monkey COS7 cells co-transfected with Gal4-LBD by luciferase reporter gene assay

[7] = target: T1, Progesterone receptor; assay: Displacement of progesterone from progesterone receptor in human T47D cells after 3 hrs; assay type: cell-based
[8] = target: T2, Glucocorticoid receptor
Description: Antagonist activity at glucocorticoid receptor ligand binding domain expressed in african green monkey COS7 cells co-transfected with Gal4-LBD by luciferase reporter gene assay

[9] = target: T4, Progesterone receptor (Homo sapiens); assay: Ratio of compound EC50 to progesterone EC50 for progesterone receptor in human T47D cells; assay type: cell-based

| SMILES | EC50 [1] | IC50 [2] | IC50 [3] | Ratio IC50 [4] | IC50 [5] | IC50 [6] | IC50 [7] | IC50 [8] | Ratio EC50 [9] |
| --- | --- | --- | --- | --- | --- | --- | --- | --- | --- |
| CC1(C)C(=O)CC[C@]2(C)[C@@]3(C)c4[nH]c5ccccc5c4C[C@@H]3CC[C@@]12O [LECANINDOLE B] | Not Active | Not Active | Not Active |  |  |  |  |  |  |
| CC1(C)[C@H](O)CC[C@]2(C)[C@@]3(C)c4[nH]c5ccccc5c4C[C@@H]3CC[C@@]12O [LECANINDOLE D] |  |  |  | 10 | 57.3 nM | > 10 µM | 5.5 nM | > 1000 nM | 10 |
